Data from patent US7985836B2, “Antimicrobial peptides and methods of identifying the same” (priority 2006, dated 2011).
Where two headings read alike, the source gives them in different places. Square brackets hold non-standard residues; d marks the D form. Ends that are not written are not given here. Peptide text beside a SMILES is read from it. Phg = N[C@H](C(=O)O)c1ccccc1

Columns and labels:
[1] = Analytical reversed-phase HPLC retention time as a measure of hydrophobicity; assay type: physicochemical; conditions: for tRP, retention time on a reverse-phase column of HPLC as a measure of hydrophobicity: Table 4, 1 ml/min; for tRP, retention time on a reverse-phase column of HPLC as a measure of hydrophobicity / tRP, retention time on a reversed-phase HPLC column as a measure of hydrophobicity: Vydac C18, acetonitrile 5% to 95%; for tRP, retention time on a reversed-phase HPLC column as a measure of hydrophobicity: Table 1, 1 mL/min, ~25° C.
Method: Analytical Reversed-Phase HPLC. The retention time of the peptide was measured on an ISCO (Lincoln, Nebr.) HPLC system equipped with a Vydac (Hesperia, Calif.) C18 reversed-phase column (250×4.6 mm) at an ambient temperature of ˜25° C. The peptide was eluted with a linear gradient of acetonitrile (containing 0.1% TFA) from 5% to 95% at a flow rate of 1 mL/min. Peptides were detected by UV absorbance at 215 nm.
Analytical reverse-phase HPLC. The retention time of each peptide was measured on an ISCO HPLC system equipped with aVydac C18 reverse-phase column (250×4.6 mm). The peptide was eluted with a linear gradient of acetonitrile (containing 0.1% TFA) from 5% to 95% at a flow rate of 1 ml/min. Peptides were detected by UV absorbance at 215 nm.

[2] = tested on: E. coli strain K12 3000; test: Antibacterial assay, microdilution MIC (Example 2); assay type: cell-based; conditions: minimum concentration at which E. coli growth is completely inhibited
Method: Antibacterial assay. The antibacterial activity of the peptides was analyzed using the standard microdilution approach (Wang et al. (2005) J. Biol. Chem., 280:5803-5811). In brief, a small culture of E. coli strain K12 3000 was grown overnight. A fresh culture was inoculated with a small aliquot of the overnight culture and incubated at 37° C. until the culture reached the logarithmic stage (A600 ˜0.5, 9×10^8 cells/ml). The culture was then diluted to A600 ˜0.001 and partitioned into a 96-well plate with ˜10^6 cells per well (90 μl each). Then, 10 μl aliquots of the peptide at different concentrations (three assays for each) were added to the cultures, allowing the minimum inhibition concentration (MIC) to be measured. The plate was then further incubated overnight (˜16 hours) at 37° C. and read on an Ultra Microplate Reader at 620 nm (Bio-TEK Instruments).

[3] = Cytotoxicity MTT assay, HBMEC; assay type: cell-based; conditions: normal human cells, peptide concentration that kills 50% of the cells, 68 hours of exposure, read-out: HBMEC LC50
Method: (§1) Anticancer Assays. Cytotoxicity studies were performed using the calorimetric MTT assays for assessing cell viability (Mark et al. (1999) Life Sci., 64:1941-1953; Hansen et al. (1989) J. Immunol. Methods, 119:203-210). Three cell lines were used, including drug-resistant KBv, drug-sensitive KB, and the nontransformed human brain microvessel endothelial cells (HBMEC). In brief, the cells were seeded onto 96-well plates at a density of 5000 cells per well. The cells were exposed to various concentrations (5-320 μM) of LL-37 peptides (triplicate assays for each) 24 hours after seeding. After 68 hours of exposure, the peptide solution was replaced with fresh media and followed by cytotoxicity analysis using the MTT assay.
(§2) The MTT assay was performed by incubating the cells with 5 mg/mL of 3-[4,5-dimethylthiazol-2-yl]-2,5-dephenyltetrazolium bromide (MTT) for 2 hours at 37° C. The cells were then solubilized in a 50:50 mixture of dimethyl formamide (DMF) and H2O containing 20% SDS (pH 4.7). The plates were read after overnight incubation. Viability is directly proportional to the amount of metabolic conversion of MTT to formazin in the mitochondria of living cells and is assessed by measuring the absorbance at 550 nm using a Microkinetics Reader (Fisher Biotech). Viability is expressed as a percent of control cells receiving only culture media without any peptides. The data from the cytotoxicity studies were plotted using Microsoft Excel, and the LC50 (concentration resulting in 50% reduction in cell viability) and standard deviations were determined for each peptide.

[4] = tested on: drug-resistant KBv; test: Anticancer/cytotoxicity MTT assay, KBv cells; assay type: cell-based; conditions: peptide concentration that kills 50% of the cells, 68 hours of exposure, read-out: KBv LC50
Method: as §1, §2

[5] = tested on: wild type E. coli K12; assay type: cell-based
Method: Antibacterial Assays. The antibacterial activity of the LL-37 peptides and its analogues was analyzed using the standard approach of microdilution (Wang et al. (2005) J. Biol. Chem., 280:5803-5811; Yu et al. (2002) J. Pept. Res., 60:1-9). In brief, a small culture of wild type E. coli K12 was grown overnight. A fresh culture was inoculated with a small aliquot of the overnight culture and incubated at 37° C. until the optical density reached the mid-logarithmic stage. The culture (90 μL each) was then diluted to an A600 of 0.001 and partitioned into a 96-well plate with ˜10^6 cells per well. […] Each peptide assay was repeated 3 times. The plate was then further incubated at 37° C. overnight (˜16 hours) and read on an Ultra Microplate Reader at 620 nm (Bio-TEK Instruments; Winooski, Vt.).

[6] = tested on: drug-sensitive KB; assay type: cell-based; conditions: peptide concentration that kills 50% of the cells; MTT, 68 hours of exposure
Method: as §1, §2

[7] = tested on: Escherichia coli D21; conditions: Escherichia coli D21, previous assays (Johansson 1998; Oren 1999); cited from earlier work
[8] = tested on: E. coli strain K12 3000; conditions: minimum concentration at which E. coli growth is completely inhibited; from Wang et al. (2005) J. Biol. Chem. 280:5803; cited from earlier work
[9] = minimum inhibitory concentration, wild type E. coli K12, overnight (~16 hours) at 37° C.

Compound	tRP, retention time on a reverse-phase column of HPLC as a measure of hydrophobicity [1] [min]	retention time on reversed-phase HPLC (hydrophobicity) [1] [min]	CC50 at 68 h [3] [µM]	CC50 [4] [µM]	further results
GLFDIIKKIAESW-NH2 (C-terminus assumed) [F13W-aurein 1.2, GLFDIIKKIAESW]	40.5	–	–	–	MIC [2]: 320 µM
RLFDKIRQVIRKF-NH2 (C-terminus assumed) [LLAA, RLFDKIRQVIRKF]	30.8	30.8	–	–	–
IGKEFKRIVQRIKDFLRNLVPRTES [LL-37(13-37)]	–	–	38 ± 3	39	E. Coli MIC ([5]; K12, 16 h): 80 µM; KB LC50 [6]: 40 ± 0 µM
GLFDKLKSLVSDDKK [anchor, bacterial membrane anchor of glucose-specific enzyme IIA of E. coli, reference compound]	29.5	29.5	–	–	tRP, retention time on a reversed-phase HPLC column as a measure of hydrophobicity [1]: 29.5 min
CC[C@H](C)[C@H](NC(=O)[C@H](CCCCN)NC(=O)[C@H](CCCCN)NC(=O)[C@@H](NC(=O)[C@@H](NC(=O)[C@H](CC(=O)O)NC(=O)[C@H](Cc1ccccc1)NC(=O)[C@H](CC(C)C)NC(=O)CN)[C@@H](C)CC)[C@@H](C)CC)C(=O)N[C@@H](C)C(=O)N[C@@H](CCC(=O)O)C(=O)N[C@@H](CO)C(=O)N[C@H](C(N)=O)c1ccccc1 [F13X-aurein 1.2, GLFDIIKKIAESX] (H-GLFDIIKKIAES[Phg]-NH2; N-terminus and C-terminus assumed)	38.3	38.3	–	–	–
CC[C@H](C)[C@H](NC(=O)[C@H](CCCCN)NC(=O)[C@H](CCC(=O)O)NC(=O)[C@H](CCCCN)NC(=O)[C@H](CO)NC(=O)[C@H](CCCCN)NC(=O)[C@H](CCCNC(=N)N)NC(=O)[C@H](Cc1ccccc1)NC(=O)[C@H](Cc1ccccc1)NC(=O)[C@H](CC(=O)O)NC(=O)CNC(=O)[C@H](CC(C)C)NC(=O)[C@@H](N)CC(C)C)C(=O)NCC(=O)N[C@@H](CCCCN)C(=O)N[C@@H](CCC(=O)O)C(=O)N[C@@H](Cc1ccccc1)C(=O)N[C@@H](CCCCN)C(=O)N[C@@H](CCCNC(=N)N)C(=O)N[C@H](C(=O)N[C@H](C(=O)N[C@@H](CCC(N)=O)C(=O)N[C@@H](CCCNC(=N)N)C(=O)N[C@H](C(=O)N[C@@H](CCCCN)C(=O)N[C@@H](CC(=O)O)C(=O)N[C@@H](Cc1ccccc1)C(=O)N[C@@H](CC(C)C)C(=O)N[C@@H](CCCNC(=N)N)C(=O)N[C@@H](CC(N)=O)C(=O)N[C@@H](CC(C)C)C(=O)N[C@H](C(=O)N1CCC[C@H]1C(=O)N[C@@H](CCCNC(=N)N)C(=O)N[C@H](C(=O)N[C@@H](CCC(=O)O)C(=O)N[C@@H](CO)C(=O)O)[C@@H](C)O)C(C)C)[C@@H](C)CC)C(C)C)[C@@H](C)CC [LL-37, reference compound]	–	–	–	–	MIC [7]: 5 to 25 µM; E. Coli MIC [5, 9]: 40 µM
GLFDIIKKIAESF [aurein 1.2, antimicrobial and anticancer peptide isolated from the Australian Bell Frog, reference compound]	43.0	43	–	–	tRP, retention time on a reversed-phase HPLC column as a measure of hydrophobicity [1]: 42.0 min; MIC [8]: 75 µM
LLGDFFRKSKEK [LL-37(1-12), LLGDFFRKSKEK]	–	–	> 320	> 320	–
FKRIVQRIKDFLRNLV-NH2 [LL-37(17-32), FKRIVQRIKDFLRNLV]	–	–	25 ± 1	30	E. Coli MIC ([5]; K12, 16 h): 20 µM; KB LC50 [6]: 30 ± 1 µM
LLGDFKRIVQRIKDF-NH2 [LL-37(1-4, 17-27), LLGDFKRIVQRIKDF]	–	–	> 320	> 320	E. Coli MIC [5, 9]: 250 µM
FKRIVQRIKDFLR-NH2 [LL-37(17-29), FKRIVQRIKDFLR]	–	–	55 ± 2	60	E. Coli MIC [5, 9]: 40 µM; KB LC50 [6]: 57 ± 3 µM
